Test results taken from US7807854B2, “Effective use method of medicaments and method of preventing expression of side effect” (priority 2004, dated 2010).

Assays:
Type in all cases: in vivo
skin allograft = experiment: Prolonging effect on skin allograft survival between MHC-compatible rat strains (LEW donor, F344 recipient)
Description: Five animals were included per group, and all rats were bread in separate cages. LEW(RT1^l) was selected as donor, and F344(RT1^lvl) was selected as recipient. A part of dermis (1.8×1.8 cm) on the back of recipient was excised, and after giving several drops of penicillin solution (40,000 U/mL, in saline) thereon, a full thickness skin graft (1.8×1.8 cm) prepared from abdominal part of donor was put thereon. First-aid adhesive tape (30×72 mm) was applied so that the center pad thereof lies on the graft, and secured by binding aeration tape (adhesive bandage, 3.8×15 cm) therearound. At 5 days, the first-aid adhesive tape and the aeration tape were removed by cutting with scissors.
Drug administration was conducted by orally administering 0.5 mL/100 g B.W. of drug once a day everyday from the day of skin transplantation. Control group was received distilled water. As the CsA, Sandimmun injection (50 mg/mL) diluted in distilled water was administered. As the FK506, the filling of Prograf capsule (Fujisawa Pharmaceutical Co., Ltd.) suspended in distilled water was administered. […] A combinational administration group was received a mixture prepared by mixing liquids to be administered right before administration.
Grafts were observed everyday from fifth day of transplantation at which the first-aid adhesive tape was removed, and the condition that 90% or more of graft epithelium necrotized to turn brown was determined as occurrence of rejection. Number of days from transplantation to determination of rejection was defined as a survival time.
Mean value of survival times for each group was calculated as a mean survival time (MST). In each group (n=5), the third-longest survival time was defined as a median value.

transplanted heart = experiment: Prolonging effect on heart graft survival between MHC-incompatible rat strains (DA donor, LEW recipient)
Experimental: Effect of KNF-299 was examined in allogeneic heart transplantation between MHC-incompatible rats. Using combination of DA (RT1^a) rat as a donor, and LEW (RT1^l) rat as a recipient, heterotopic heart transplantation in which heart of donor is joined to neck vessel of recipient with a cuff was conducted with reference to a literature (Microsurgery; 21, 16-21, 2001) or the like.
Drug was administered orally once a day everyday from the day of heart transplantation. MPA was prepared from the product purchased from Wako Pure Chemical Industries, Ltd. so that the concentration was 20 mg/mL in a saline containing 0.5% carboxymethyl cellulose, 0.4% Tween 80, and 0.9% benzyl alcohol, and administered in 0.1 mL/100 g B.W.
KNF-299 was dissolved in distilled water in a concentration of 0.06 mg/mL, and administered in 0.5 mL/100 g B.W. A control group was received a vehicle used for MPA administration liquid.
Cardiac pulsation of the transplanted heart was checked by inspection or palpation, and determination of rejection was made when cardiac pulsation stopped. Number of days from transplantation to determination of rejection was defined as survival time. Mean value of survival time in each group was calculated as mean survival time (MST).

adjuvant arthritis = experiment: Rat adjuvant arthritis (AA) model, hind limb volume increase; conditions: for Inhibition of adjuvant arthritis (hind limb volume increase): oral once daily, Day 21
Experimental: In a footpad of right hind limb of 6 or 7-week-old female LEW/Crj rat (Charles River Japan, Inc.), 0.05 mL (0.6 mg/animal) of killed M. butyricum (12 mg/mL) suspended in liquid paraffin was intradermally injected to cause arthritis (Day 0). Test compound was dissolved or suspended in pure water and orally administered in a volume of 0.5 mL per 100 g of body weight of rat. Adjuvant control was received only pure water. As for the combinational administration group, an aqueous solution of KNF-299 and an aqueous solution of MTX(Sigma) were administered after being mixed before administration. Administration was conducted once a day everyday from Day 0 to end of the experiment. Evaluation of arthritis was made by measuring volumes of left and right hind limbs by using a volume meter (MK-550, Muromachi Kikai) at Day 0, 3, 8, 14, 17, and 21, and determining an increase relative to hind limb at Day 0.

[1] = FK506 3 mg/kg oral once daily, third test (headed Test 2)
[2] = KNF-299 0.03 mg/kg oral once daily, Test 2
[3] = KNF-299 0.1 mg/kg oral once daily, third test (headed Test 2)

C=CC[C@@H]1/C=C(\C)C[C@H](C)C[C@H](OC)[C@H]2O[C@@](O)(C(=O)C(=O)N3CCCC[C@H]3C(=O)O[C@H](/C(C)=C/[C@@H]3CC[C@@H](O)[C@H](OC)C3)[C@H](C)[C@@H](O)CC1=O)[C@H](C)C[C@@H]2OC [FK506, tacrolimus, reference compound]
Survival time (day) of skin graft, MST (skin allograft; [1]): 9.2 days
Survival time (day) of skin graft, Median (skin allograft; [1]): 9.0 days

COc1c(C)c2c(c(O)c1C/C=C(\C)CCC(=O)O)C(=O)OC2 [MPA, mycophenolic acid, reference compound]
Survival time (day) of transplanted heart, MST (transplanted heart; MPA 20 mg/kg oral once daily): >54.4 days
Rejection preventing effect on transplanted heart (in words) (transplanted heart; MPA 20 mg/kg single administration): insufficient

CN(Cc1cnc2nc(N)nc(N)c2n1)c1ccc(C(=O)N[C@@H](CCC(=O)O)C(=O)O)cc1 [MTX, methotrexate]
Inhibition of adjuvant arthritis (hind limb volume increase) (adjuvant arthritis; MTX 0.025 mg/kg alone, not significant): 20%
Ability to prevent onset of adjuvant arthritis (adjuvant arthritis; MTX 0.03 mg/kg oral once daily, FIG. 2): not observed
Inhibition of adjuvant arthritis (hind limb volume increase) (adjuvant arthritis; MTX 0.05 mg/kg alone, not significant): 35%
Ability to prevent onset of adjuvant arthritis (adjuvant arthritis; MTX 0.1 mg/kg oral once daily, FIG. 2): reached maximum

NC(CO)(CO)CCc1ccc(Sc2cccc(OCc3ccccc3)c2)cc1Cl [KNF-299, 2-amino-2-[4-(3-benzyloxyphenylthio)-2-chlorophenyl]ethyl-1,3-propanediol]
Survival time (day) of skin graft, MST (skin allograft; [2]): 9.0 days
Survival time (day) of skin graft, Median (skin allograft; [2]): 9.0 days
Survival time (day) of skin graft, MST (skin allograft; [3]): 8.8 days
Survival time (day) of skin graft, Median (skin allograft; [3]): 9.0 days
Survival time (day) of skin graft, Median (skin allograft; KNF-299 3 mg/kg oral once daily, Test 1): >30 days
Effect on skin graft survival (in words) (skin allograft; KNF-299 3 mg/kg single administration): clear prolonging effect
Inhibition of adjuvant arthritis (hind limb volume increase) (adjuvant arthritis; KNF-299 0.01 mg/kg alone): 36%
Ability to prevent onset of adjuvant arthritis (adjuvant arthritis; KNF-299 0.1 mg/kg p.o. once daily, FIG. 1): reaches almost maximum
Survival time (day) of transplanted heart, MST (transplanted heart; KNF-299 0.3 mg/kg oral once daily): 7.0 days
Prolonging effect on heart graft mean survival time compared to control group (transplanted heart; KNF-299 0.3 mg/kg single administration): 1.2 days
